# Results as given in patent US20260083704A1, “LXR MODULATORS WITH BICYCLIC CORE MOIETY FOR TREATING DYSLIPIDEMIAS” (OrsoBio, Inc., priority 2022, published 2026).
# Where two headings read alike, the source gives them in different places.
# Columns and labels:
# [1] = Plasma and liver exposures in mice dosed 1 mg/kg by oral gavage; type: in vivo; conditions: 1 mg/kg oral gavage
# Description: (§1) Data are shown as mean±SD. N=3-8 wells per treatment.
# (§2) The efficacy of Compound 21/3 and Compound pre-6/3 were evaluated in diet-induced obese (DIO) mouse and rat models.
# [2] = test system: LXR target genes in the liver; experiment: Liver LXR target gene expression 24 hours after a single oral dose in mice; type: in vivo; conditions: 24 hours post-dose
# Description: as §1, §2
# [3] = Phase 1 study, SAD cohorts: plasma pharmacokinetics; type: in vivo, human; conditions: for AUC(0-inf) / Cmax / Tmax / half-life: both sexes, human, oral, plasma
# Description: A double-blind, placebo-controlled, single- and multiple-ascending dose FIH Phase 1 study to evaluate the safety, tolerability, PK, and PD of Compound 21/3 in healthy adult subjects was performed. A total of up to 150 subjects were enrolled, including 100 subjects in Parts A and B, and up to 50 subjects in adaptive cohorts in Part C. Within each cohort, 10 subjects were randomized, including 8 subjects randomized to Compound 21/3 and 2 subjects to PTM (placebo-to-match). In single-dose cohorts in Parts A and in any Part C cohort evaluating a higher total daily dose than previously evaluated, safety and tolerability data collected through Day 2 from two sentinel subjects, one randomized to Compound 21/3 and one to PTM, were evaluated prior to dosing of the remaining subjects in each cohort.
# Intensive PK sampling over 72 h postdose on Day 1 (SAD and MAD) and Day 14 (MAD) was performed. Compound 21/3 plasma concentrations were determined using validated liquid chromatography-tandem mass spectrometry assay. PK parameters were estimated via noncompartmental methods using Pheonix® WinNonlin® 6.2.1 and 8.3.4 (Certara, LP, Princeton, NJ).
# Part A evaluated the safety, tolerability, PK, and PD of single-ascending doses of oral Compound 21/3 or placebo under fed conditions. Part A proceeded in up to 5 dose-escalation cohorts and governed by a review of safety, tolerability, and any available and relevant PK and/or PD data, and study-specific stopping criteria.
# ApoC3 and ANGPTL3 = experiment: Phase 1 study, MAD cohorts: plasma ApoC3 and ANGPTL3 by ELISA; type: in vivo, human; conditions: healthy subjects, Day 1 to Day 14, 12 h postdose
# Description: Lipid parameters, including apolipoprotein B (apoB), were evaluated by NMR LipoProfile® (Labcorp, Burlington, NC. Plasma ApoC3 and ANGPTL3 were evaluated by ELISA (360biolabs, Melbourne, Australia). Peripheral RCT (reverse cholesterol transport) were evaluated by assessing changes in expression of ABCA1/ABCG1 in PBMCs, predose and 4 hours postdose on Days 1 and 14 (Gnomix, Bedford Park, Australia).
# In FIG. 14A to 14C, ApoC3 and ANGPTL3 measured 12 h postdose. RCT assessed predose and 4 h postdose on Day 14.
# HFD-fed (DIO) mice = experiment: Intestinal lipid absorption (3H-triolein tracer) in HFD-fed mice; type: in vivo; conditions: 5 mg/kg oral gavage
# From the text: Data are shown as mean±SD. N=5-8 animals per group. *p≤0.05, **p≤0.01, ***p≤0.001, ****p≤0.0001 vs. vehicle, unless otherwise indicated; ^#p≤0.05 pioglitazone vs. vehicle Kruskal-Wallis (non-parametric One-Way ANOVA) test with Dunn's multiple comparisons test (FIG. 4A, FIG. 4B, FIG. 4D), repeated measures two-way ANOVA with Dunnett's multiple comparisons test (FIG. 4C), two-way ANOVA with Sidak's multiple comparisons test (FIG. 4E), Mann-Whitney test (FIG. 4F-G).
# In addition to the effects of Compound 21/3 on hepatic DNL, the observed reductions in plasma TG in these models may be mediated by reduced intestinal TG absorption, as well as increased clearance of TG-containing lipoproteins from the circulation. […] Further, LXR inhibition with Compound pre-6/3 reduced intestinal lipid absorption as measured by reduced uptake of ^3H-labelled triolein tracer in HFD-fed mice (FIG. 4E). Additionally, Compound 21/3 reduced hepatic expression and plasma levels of ANGPTL3, an inhibitor of LPL, the predominant enzyme involved in the clearance of TG-rich lipoproteins from the circulation (FIG. 4F). Loss-of-function variants in ANGPTL3 are associated with reduced serum lipids and a lower risk of CAD (Dewey, Gusarova et al. 2017). […]
# [4] = test system: CDHFD/sodium nitrate-treated Wistar Han rats; experiment: CDHFD/sodium nitrate rat model of NASH with advanced fibrosis; type: in vivo; conditions: 5 mg/kg once daily oral
# From the text: Data are shown as mean±SD. N=7-8 animals per group. *p≤0.05, **p≤0.01, ***p≤0.001, ****p≤0.0001 Mann-Whitney test.
# The CDHFD model of NASH is characterized by reduced phosphatidylcholine synthesis in the liver and impaired TG secretion in VLDL particles, which results in hepatic lipid accumulation, inflammation, oxidative stress, and severe fibrosis. Liver injury in CDHFD-fed rats can be exacerbated by further inducing hypoxia using sodium nitrate (Takayama, Egashira et al. 2009). Wistar Han rats were treated with CDHFD/sodium nitrate for a total of 12 weeks and dosed with Compound pre-6/3 (5 mg/kg once daily by oral gavage) from Weeks 6 to 12. […] Moreover, compared with vehicle treatment, Compound pre-6/3 decreased hepatic hydroxyproline and collagen content by 64% (p≤0.001) and 50% (p≤0.001), respectively (FIG. 8B-C).
smiles,measurement,setting,value
N#Cc1cccc(C#N)c1-c1c(-c2cccc(-c3ccc(C(=O)NCC(=O)O)cc3Cl)c2)n(S(=O)(=O)c2ccc(C(F)F)cc2)c2ccc(F)cc12 [Compound 21/3],liver exposures compared with Compound pre-6/3,[1],higher and sustained liver exposures
same,plasma exposures compared with Compound pre-6/3,[1],lower plasma exposures
same,target engagement in the liver (expression of LXR target genes),[2],sustained target engagement
same,AUC(0-inf),"[3]; Day 1, 0.5 mg, mean",1.2 ng·h/mL
same,Cmax,"[3]; Day 1, 0.5 mg, mean, read-out: Cmax",0.37 ng/mL
same,Tmax,"[3]; Day 1, 0.5 mg, median",3.5 h
same,half-life,"[3]; Day 1, 0.5 mg, median",126 min
same,AUC(0-inf),"[3]; Day 1, 2 mg, mean",8.5 ng·h/mL
same,Cmax,"[3]; Day 1, 2 mg, mean, read-out: Cmax",0.54 ng/mL
same,Tmax,"[3]; Day 1, 2 mg, median",3.75 h
same,half-life,"[3]; Day 1, 2 mg, median",298 min
same,AUC(0-inf),"[3]; Day 1, 6 mg, mean",10 ng·h/mL
same,Cmax,"[3]; Day 1, 6 mg, mean, read-out: Cmax",3.33 ng/mL
same,Tmax,"[3]; Day 1, 6 mg, median",4 h
same,half-life,"[3]; Day 1, 6 mg, median",82.2 min
same,AUC(0-inf),"[3]; Day 1, 12 mg, mean",17.1 ng·h/mL
same,Cmax,"[3]; Day 1, 12 mg, mean, read-out: Cmax",4.69 ng/mL
same,Tmax,"[3]; Day 1, 12 mg, median",3 h
same,half-life,"[3]; Day 1, 12 mg, median",121 min
same,AUC(0-inf),"[3]; Day 1, 20 mg, mean",20.6 ng·h/mL
same,Cmax,"[3]; Day 1, 20 mg, mean, read-out: Cmax",6.79 ng/mL
same,Tmax,"[3]; Day 1, 20 mg, median",2.5 h
same,half-life,"[3]; Day 1, 20 mg, median",142 min
same,half-life,[3]; healthy subjects,120 to 180 min
same,Tmax,"[3]; healthy subjects, postdose",3 to 4 h
same,Cmax,"[3]; healthy subjects, read-out: maximal plasma concentrations (Cmax)",< 7 ng/mL
same,dose proportionality of plasma exposure,[3]; healthy subjects,less than dose-proportional increases
same,plasma ApoC3 and ANGPTL3,ApoC3 and ANGPTL3,reduces
N#Cc1cccc(C#N)c1-c1c(-c2cccc(-c3ccc(C(=O)O)cc3Cl)c2)n(S(=O)(=O)c2ccc(C(F)F)cc2)c2ccc(F)cc12 [pre-6/3],intestinal lipid absorption (uptake of 3H-labelled triolein tracer),HFD-fed (DIO) mice,reduced
same,fibrosis (picrosirus red staining),[4]; Weeks 6 to 12,significantly decreased
same,"hepatic expression of DNL genes (Srebp1c, Scd1, Fasn) and fibrogenesis genes (Timp1, Col1a1, Acta2)",[4]; Weeks 6 to 12,decreased
same,liver TG content,[4]; Weeks 6 to 12,decreased
same,decrease of hepatic collagen content compared with vehicle,"[4]; Weeks 6 to 12, p≤0.001",50%
same,decrease of hepatic hydroxyproline content compared with vehicle,"[4]; Weeks 6 to 12, p≤0.001",64%
